Reference: ChEMBL document CHEMBL3045351, “A 4-(o-methoxyphenyl)-2-aminothiazole: an anti-quorum sensing compound” (2013)
≈ marks a conversion by molar mass, not a printed value. Calls of active or inactive are those of the source. The rule behind the calls is not given here.

Key:
Escherichia coli [1] = experiment: Antibacterial activity against Escherichia coli NCIM 2931 incubated for 12 hr followed by subculturing measured after 24 hr by colony counting method; format: functional
Pseudomonas aeruginosa [2] = experiment: Bactericidal activity against Pseudomonas aeruginosa PAO1 after 18 hr by crystal violet staining method; format: functional, organism-based
Pseudomonas aeruginosa [3] = experiment: Antiquorum-sensing activity against Pseudomonas aeruginosa PAO1 cells assessed as scattered cells at 25 ug/ml after 18 hr by scanning electron microscopic analysis; format: functional, organism-based
Pseudomonas aeruginosa [4] = experiment: Antiquorum-sensing activity against Pseudomonas aeruginosa PAO1 cells assessed as decrease in biofilm formation at 25 to 100 ug/ml after 18 hr by crystal violet staining method; format: functional, organism-based
Bacillus subtilis [5] = experiment: Induction of ROS production in Bacillus subtilis NCIM 2063 assessed as morphological changes at MIC50 concentration after 3 hr by scanning electron microscopic analysis; format: functional, organism-based
Bacillus subtilis [6] = experiment: Antibacterial activity against Bacillus subtilis NCIM 2063 after 12 hr by resazurin reduction assay; format: functional; conditions: NCIM 2063, 12 h
Bacillus subtilis [7] = experiment: Induction of ROS production in Bacillus subtilis NCIM 2063 at MIC50 concentration after 3 hr by DCFH-DA-based fluorimetric analysis; format: functional, organism-based
Escherichia coli [8] = experiment: Antibacterial activity against Escherichia coli NCIM 2931 after 12 hr by resazurin reduction assay; format: functional; conditions: NCIM 2931, 12 h
Bacillus subtilis [9] = experiment: Antibacterial activity against Bacillus subtilis NCIM 2063 incubated for 12 hr followed by subculturing measured after 24 hr by colony counting method; format: functional

COc1ccccc1-c1csc(N)n1
MBC (Escherichia coli [1]): 500 µg/mL (≈ 2420 µM)
Activity (Pseudomonas aeruginosa [2]): Active
Activity (Pseudomonas aeruginosa [3]): Active
Activity (Pseudomonas aeruginosa [4]): Active
Activity (Bacillus subtilis [5]): inactive
MIC (Bacillus subtilis [6]): 250 µg/mL (≈ 1210 µM)
Activity (Bacillus subtilis [7]): inactive
MIC (Escherichia coli [8]): 500 µg/mL (≈ 2420 µM)
MBC (Bacillus subtilis [9]): 250 µg/mL (≈ 1210 µM)
